Laboratory results taken from patent US5656591A, “Antimicrobial agents and method for treating products therewith” (Morinaga Milk Industry Co., Ltd., priority 1992, dated 1997).

System: Staphylococcus aureus (JCM-2151)
Experiment: Viability assay (survival rate) in cow's milk medium
Assay type: cell-based
Design: key to survival rate: % of control colony count 1 (control colony count 2 at peptide 0)
Settings: for antimicrobial activity of the compound added without antimicrobial peptide or lactoferrin hydrolysate (in words): compound alone
Method: The colonies grown on the culture medium were scraped by a platinum loop and cultivated in 1% peptone (by Difco Company) culture medium for several hours at 37° C., and the resultant microbial culture at logarithmic phase was used as the preculture in a serial concentration of 3×10^8 /ml.
A quantity of the resultant solutions of the samples were selectively mixed with a quantity of the basal medium, thereby test media for the respective tests were prepared in the combinations and eventual concentrations as specified in the respective tests.
Utilizing the samples (5), (7), (8), (9), (10), (14), (15), (17), (18) and (19), test media were prepared in the same manner as in the preparation of the test media containing sample (3) and the like, except that the aqueous solution (in the cases of samples (5) and (7), aqueous suspensions) were not dealt with sterilization filters.
To 2 ml aliquots of test media prepared in (3-1) (supra), […] aliquots of the preculture of Staphylococcus aureus prepared in (1) (2. Method, supra) were added, then incubated at 37° C. for 1 hour, 200 μl aliquots of the resultant cultures were taken out and diluted with 1% peptone solution in a series of 10^n respectively, 110 μl aliquots of the resultant dilution series were spread onto plates of standard agar culture medium, and after incubation at 37° C. for 24 hours the number of colonies grown on the plates were counted (Test. Colony Count).
Control coloney counts 1 were determined in the same manner as in the determination of the test coloney counts, except that […] aliquots of the preculture of Staphylococcus aureus prepared in (1) (2. Method, supra) were added to 2 ml aliquots of the respective control media 1 prepared in (3-2) (supra). Furthermore, control coloney counts 2 were determined in the same manner as in the determination of the test coloney counts, except that […] aliquots of the preculture of Staphylococcus aureus prepared in (1) (supra) were added to 2 ml aliquots of the respective control media 1 prepared in (3-2) (supra).
Survival rate 1=(Test Colony Count/Control Colony Count 1)×100
Survival rate 2=(Control Colony Count 2/Control Colony Count 1)×100
(Note: In the tables shown hereinafter, vulues of survival rate 2 are indicated in the row where the concentration of antimicrobial peptide or lactoferrin hydrolysate is 0.)

[1] = with antimicrobial peptide Seq. ID No. 26

Compound | antimicrobial activity of the compound added without antimicrobial peptide or lactoferrin hydrolysate (in words) | effect of the coexisting compound on the antimicrobial activity of the antimicrobial peptide (in words) [1] | other results
CCCCCCCCCCCCCC(=O)OCC(O)CO (racemic) [1-monomyristoyl-rac-glycerol, 1-monomyristoyl-rac-Glycerol] | the antimicrobial activity is low | augmented the antimicrobial activity of the peptide | 
CCCCCCCCCCCCCCCCCC(=O)OCC(O)CO (racemic) [1-monostearoyl-rac-glycerol] | no antimicrobial activity was observed | augments the antimicrobial activity of the antimicrobial peptide | survival rate (Test 19: peptide 0, 1-monostearoyl-rac-glycerol 0.5 mg/ml): 116%; survival rate (Test 19: peptide 0, 1-monostearoyl-rac-glycerol 1 mg/ml): 133%; survival rate (Test 19: peptide 0, 1-monostearoyl-rac-glycerol 2 mg/ml): 98%
CCCCCCCC(=O)OCC(O)CO (racemic) [monocapryloyl-glycerol, 1-Monocapryloyl-rac-Glycerol] | no antimicrobial activity was observed | augments the antimicrobial activity of the peptide | 
O=C([O-])CN(CCN(CC(=O)[O-])CC(=O)O)CC(=O)O.[Na+].[Na+] [EDTA.Na2, EDTA·Na2] | no antimicrobial activity was observed |  | survival rate (Test 9: lactoferrin hydrolysate 0, EDTA.Na2 0.1 mg/ml): 122; survival rate (Test 9: lactoferrin hydrolysate 0, EDTA.Na2 1 mg/ml): 115; survival rate (Test 9: lactoferrin hydrolysate 0, EDTA.Na2 5 mg/ml): 101; effect of the coexisting compound on the antimicrobial activity of the lactoferrin hydrolysate (in words) (with lactoferrin hydrolysate 1): augments the antimicrobial activity of the lactoferrin hydrolysate
N[C@@H](CS)C(=O)O [L-cysteine, L-Cysteine] | antimicrobial activity was low |  | effect of the coexisting compound on the antimicrobial activity of the antimicrobial peptide (in words) (with antimicrobial peptide Seq. ID No. 27): augments the antimicrobial activity of the peptide
